Each molecule was assayed against LRRK2 wild-type (Homo sapiens (Human), UniProt Q5S007) (assay: LanthaScreen LRRK2 Biochemical Activity Assay). Details: human recombinant LRRK2 (amino acids 970-2527) wild-type, ATP 57 μM, TR-FRET; read-out: IC50 (nM), inhibition of LRRK2 wild-type kinase activity.
Description: The ability of a compound of Formula (I) to inhibit LRRK2 kinase activity is measured using a LanthaScreen™ kinase activity assay. In general, in a LanthaScreen™ kinase activity assay, kinase, fluorescein-labeled substrate, and ATP are allowed to react. Then EDTA (to stop the reaction) and terbium-labeled antibody (to detect phosphorylated product) are added. In a LanthaScreen™ kinase reaction, the antibody associates with the phosphorylated fluorescein labeled substrate resulting in an increased TR-FRET value. The TR-FRET value is a dimensionless number that is calculated as the ratio of the acceptor (fluorescein) signal to the donor (terbium) signal. The amount of antibody that is bound to the tracer is directly proportional to the amount of phosphorylated substrate present, and in this manner, kinase activity can be detected and measured by an increase in the TR-FRET value. Accordingly, in this Example, enzyme reactions are carried out in a kinase reaction buffer in the presence or absence of representative compounds of Formula (I) at various concentrations in 384-well plate at room temperature for 60 minutes. The kinase reaction buffer contains human recombinant LRRK2 protein (amino acids 970-2527, 5 nM), ATP (57 μM for LRRK2 wild-type, 134 μM for G2019S mutant protein), Fluorescein-LRRKtide substrate (0.4 mM), 50 mM Tris pH 7.5, 10 mM MgCl2, 1 mM EGTA, 0.01% Brij™-35, and 2 mM DTT. The final reaction volume for each reaction is 10 μL. The reactions are initated by adding the substrate and stopped by the addition of 10 μL of a TR-FRET dilution buffer supplemented with a kinase quench buffer (10 mM EDTA final) and Tb-anti-pLRRKtide (2 nM final). The plate is further incubated at room temperature for another 60 minutes, and the fluorescent signals are read on an EnVision® multilabel plate reader (PerkinElmer, Waltham, MA) with excitation at 340 nm and emission at 495 and 520 nm. The assay signal is determined as a ratio of FRET-specific signal measured with emission filter at 520 nm to that of the signal measured with Tb-specific emission filter at 495 nm. IC50 values for compound-mediated enzyme inhibition are calculated using appropriate programs in GraphPad Prism software by plotting the logarithm of the compound concentrations versus percent inhibition. All reagents are purchased from Thermo Fisher Scientific.

LRRK2 wild-type, sequence (Q5S007 970-2527): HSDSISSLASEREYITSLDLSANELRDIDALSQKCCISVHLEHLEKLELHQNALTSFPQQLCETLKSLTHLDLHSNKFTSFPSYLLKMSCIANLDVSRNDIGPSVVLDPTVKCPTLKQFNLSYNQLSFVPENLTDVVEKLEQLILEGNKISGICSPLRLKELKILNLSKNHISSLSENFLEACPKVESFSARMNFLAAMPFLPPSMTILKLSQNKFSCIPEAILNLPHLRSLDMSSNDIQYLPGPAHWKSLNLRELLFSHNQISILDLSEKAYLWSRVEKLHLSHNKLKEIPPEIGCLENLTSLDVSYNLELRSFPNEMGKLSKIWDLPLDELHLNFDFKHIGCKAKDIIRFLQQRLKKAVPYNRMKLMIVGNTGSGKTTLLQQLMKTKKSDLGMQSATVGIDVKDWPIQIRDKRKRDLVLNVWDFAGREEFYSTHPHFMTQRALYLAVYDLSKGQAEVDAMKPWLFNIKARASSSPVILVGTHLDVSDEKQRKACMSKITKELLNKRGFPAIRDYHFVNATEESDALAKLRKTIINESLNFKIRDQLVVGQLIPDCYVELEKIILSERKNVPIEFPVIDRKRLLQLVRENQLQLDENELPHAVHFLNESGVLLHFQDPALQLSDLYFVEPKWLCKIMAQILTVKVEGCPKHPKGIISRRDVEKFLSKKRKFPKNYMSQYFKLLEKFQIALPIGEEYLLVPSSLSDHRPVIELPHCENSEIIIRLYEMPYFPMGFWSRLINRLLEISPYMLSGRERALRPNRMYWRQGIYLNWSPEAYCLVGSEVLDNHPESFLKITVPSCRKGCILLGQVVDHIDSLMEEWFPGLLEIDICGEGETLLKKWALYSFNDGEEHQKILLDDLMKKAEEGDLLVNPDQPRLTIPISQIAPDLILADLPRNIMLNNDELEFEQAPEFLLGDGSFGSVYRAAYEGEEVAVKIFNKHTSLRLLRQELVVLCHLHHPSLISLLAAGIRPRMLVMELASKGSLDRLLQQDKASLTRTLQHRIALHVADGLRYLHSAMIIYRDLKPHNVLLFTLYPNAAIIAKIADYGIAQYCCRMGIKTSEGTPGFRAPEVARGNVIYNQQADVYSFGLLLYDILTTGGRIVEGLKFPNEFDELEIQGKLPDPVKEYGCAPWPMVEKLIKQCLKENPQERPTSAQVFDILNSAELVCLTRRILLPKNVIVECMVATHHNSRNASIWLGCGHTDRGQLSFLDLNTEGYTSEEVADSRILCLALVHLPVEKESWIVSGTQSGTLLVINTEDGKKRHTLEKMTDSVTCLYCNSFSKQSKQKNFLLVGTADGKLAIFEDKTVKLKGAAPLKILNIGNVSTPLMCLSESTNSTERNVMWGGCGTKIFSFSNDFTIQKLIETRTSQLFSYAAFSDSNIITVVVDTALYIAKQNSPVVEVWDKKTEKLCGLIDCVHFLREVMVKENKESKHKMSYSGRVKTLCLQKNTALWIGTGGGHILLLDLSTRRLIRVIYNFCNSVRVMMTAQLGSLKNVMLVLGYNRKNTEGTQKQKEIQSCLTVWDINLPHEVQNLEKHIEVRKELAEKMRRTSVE

| IC50 | Compound |
| --- | --- |
| 11 to 100 nM | Clc1ccn2ncc(-c3cccc(C4CCCNC4)n3)c2c1 (racemic) [Example 5, Rac-5-chloro-3-[6-(3-piperidyl)-2-pyridyl]pyrazolo[1,5-a]pyridine] |
| 101 to 400 nM | Clc1ccn2ncc(-c3cccc([C@@H]4CCCNC4)n3)c2c1 (single isomer, unassigned) [Example 6, (+)-5-chloro-3-(6-(piperidin-3-yl)pyridin-2-yl)pyrazolo[1,5-a]pyridine] |
| ≤ 10 nM | Clc1ccn2ncc(-c3cccc([C@H]4CCCNC4)n3)c2c1 (single isomer, unassigned) [Example 7, (−)-5-chloro-3-(6-(piperidin-3-yl)pyridin-2-yl)pyrazolo[1,5-a]pyridine] |
| 101 to 400 nM | c1cc(-c2cnn3ccccc23)nc(C2CCNCC2)c1 [Example 1, 3-[6-(4-piperidyl)-2-pyridyl]pyrazolo[1,5-a]pyridine] |
| 101 to 400 nM | CN1CCC(c2cccc(-c3cnn4ccccc34)n2)CC1 [Example 2, 3-[6-(1-methyl-4-piperidyl)-2-pyridyl]pyrazolo[1,5-a]pyridine] |
| 101 to 400 nM | c1cc(-c2cnn3ccccc23)nc(C2CCNC2)c1 (centres unmarked) [Example 3, 3-(6-pyrrolidin-3-yl-2-pyridyl)pyrazolo[1,5-a]pyridine] |
| 11 to 100 nM | Clc1ccn2ncc(-c3cccc(C4CCNC4)n3)c2c1 (centres unmarked) [Example 4, 5-chloro-3-(6-(pyrrolidin-3-yl)pyridin-2-yl)pyrazolo[1,5-a]pyridine] |
| 11 to 100 nM | Brc1ccn2ncc(-c3cccc(C4CCCNC4)n3)c2c1 (centres unmarked) [Example 8, 5-bromo-3-[6-(3-piperidyl)-2-pyridyl]pyrazolo[1,5-a]pyridine] |
| 11 to 100 nM | Cc1ccn2ncc(-c3cccc(C4CCCNC4)n3)c2c1 (centres unmarked) [Example 9, 5-methyl-3-[6-(3-piperidyl)-2-pyridyl]pyrazolo[1,5-a]pyridine] |
| 11 to 100 nM | FC(F)(F)c1ccn2ncc(-c3cccc(C4CCCNC4)n3)c2c1 (centres unmarked) [Example 10, 3-[6-(3-piperidyl)-2-pyridyl]-5-(trifluoromethyl)pyrazolo[1,5-a]pyridine] |
| 11 to 100 nM | COc1ccn2ncc(-c3cccc(C4CCCNC4)n3)c2c1 (centres unmarked) [Example 11, 5-methoxy-3-[6-(3-piperidyl)-2-pyridyl]pyrazolo[1,5-a]pyridine] |
| 101 to 400 nM | Oc1ccn2ncc(-c3cccc(C4CCCNC4)n3)c2c1 (centres unmarked) [Example 12, 3-(6-(piperidin-3-yl)pyridin-2-yl)pyrazolo[1,5-a]pyridin-5-ol] |
| 11 to 100 nM | CC(C)Oc1ccn2ncc(-c3cccc(C4CCCNC4)n3)c2c1 (centres unmarked) [Example 13, 5-isopropoxy-3-[6-(3-piperidyl)-2-pyridyl]pyrazolo[1,5-a]pyridine] |
| 101 to 400 nM | c1cc(-c2cnn3ccc(OCC4CC4)cc23)nc(C2CCCNC2)c1 (centres unmarked) [Example 14, 5-(cyclopropylmethoxy)-3-[6-(3-piperidyl)-2-pyridyl]pyrazolo[1,5-a]pyridine] |
| 101 to 400 nM | c1cc(-c2cnn3ccc(OCC4COC4)cc23)nc(C2CCCNC2)c1 (centres unmarked) [Example 15, 5-(oxetan-3-ylmethoxy)-3-[6-(3-piperidyl)-2-pyridyl]pyrazolo[1,5-a]pyridine] |
| 101 to 400 nM | c1cc(-c2cnn3ccc(N4CCOCC4)cc23)nc(C2CCCNC2)c1 (centres unmarked) [Example 16, 4-[3-[6-(3-piperidyl)-2-pyridyl]pyrazolo[1,5-a]pyridin-5-yl]morpholine] |
| 11 to 100 nM | N#Cc1ccn2ncc(-c3cccc(C4CCCNC4)n3)c2c1 (centres unmarked) [Example 17, 3-[6-(3-piperidyl)-2-pyridyl]pyrazolo[1,5-a]pyridine-5-carbonitrile] |
| 11 to 100 nM | c1cc(-c2cnn3ccc(C4CC4)cc23)nc(C2CCCNC2)c1 (centres unmarked) [Example 18, 5-cyclopropyl-3-[6-(3-piperidyl)-2-pyridyl]pyrazolo[1,5-a]pyridine] |
| 101 to 400 nM | Nc1ccn2ncc(-c3cccc(C4CCCNC4)n3)c2c1 (centres unmarked) [Example 19, 3-[6-(3-piperidyl)-2-pyridyl]pyrazolo[1,5-a]pyridin-5-amine] |
| ≤ 10 nM | CNc1ccn2ncc(-c3cccc(C4CCCNC4)n3)c2c1 (centres unmarked) [Example 20, N-methyl-3-[6-(3-piperidyl)-2-pyridyl]pyrazolo[1,5-a]pyridin-5-amine] |
| 11 to 100 nM | CCNc1ccn2ncc(-c3cccc(C4CCCNC4)n3)c2c1 (centres unmarked) [Example 21, N-ethyl-3-[6-(3-piperidyl)-2-pyridyl]pyrazolo[1,5-a]pyridin-5-amine] |

| IC50 | Compound |
| --- | --- |
| 11 to 100 nM | CS(=O)(=O)NCCC(=O)Nc1ccn2ncc(-c3cccc(C4CCCNC4)n3)c2c1 (centres unmarked) [Example 22, 3-(methylsulfonamido)-N-(3-(6-(piperidin-3-yl)pyridin-2-yl)pyrazolo[1,5-a]pyridin-5-yl)propanamide] |
| 101 to 400 nM | CS(=O)(=O)NCCC(=O)Nc1ccc2c(-c3cccc(C4CCCNC4)n3)cnn2c1 (centres unmarked) [Example 23, 3-(methanesulfonamido)-N-[3-[6-(3-piperidyl)-2-pyridyl]pyrazolo[1,5-a]pyridin-6-yl]propanamide] |
| 101 to 400 nM | CS(=O)(=O)NCCNC(=O)c1ccc2c(-c3cccc(C4CCCNC4)n3)cnn2c1 (centres unmarked) [Example 24, N-[2-(methanesulfonamido)ethyl]-3-[6-(3-piperidyl)-2-pyridyl]pyrazolo[1,5-a]pyridine-6-carboxamide] |
| 101 to 400 nM | CS(=O)(=O)NCC(=O)N1CCCC(c2cccc(-c3cnn4ccccc34)n2)C1 (centres unmarked) [Example 25, N-[2-oxo-2-[3-(6-pyrazolo[1,5-a]pyridin-3-yl-2-pyridyl)-1-piperidyl]ethyl]methanesulfonamide] |
| 101 to 400 nM | CS(=O)(=O)N1CCCC(c2cccc(-c3cnn4ccccc34)n2)C1 (centres unmarked) [Example 26, 3-[6-(1-methylsulfonyl-3-piperidyl)-2-pyridyl]pyrazolo[1,5-a]pyridine] |
| 101 to 400 nM | COc1cc(-c2cnn3ccccc23)nc(C2CCCNC2)c1 (centres unmarked) [Example 27, 3-(4-methoxy-6-(piperidin-3-yl)pyridin-2-yl)pyrazolo[1,5-a]pyridine] |
| 11 to 100 nM | Clc1cc(-c2cnn3ccccc23)nc(C2CCCNC2)c1 (centres unmarked) [Example 28, 3-(4-chloro-6-(piperidin-3-yl)pyridin-2-yl)pyrazolo[1,5-a]pyridine] |
| 11 to 100 nM | Clc1ccc(-c2cnn3ccccc23)nc1C1CCCNC1 (centres unmarked) [Example 29, 3-[5-chloro-6-(3-piperidyl)-2-pyridyl]pyrazolo[1,5-a]pyridine] |
| 101 to 400 nM | Clc1ccc(C2CCCNC2)nc1-c1cnn2ccccc12 (centres unmarked) [Example 30, 3-(3-chloro-6-(piperidin-3-yl)pyridin-2-yl)pyrazolo[1,5-a]pyridine] |
| 101 to 400 nM | Fc1cc(-c2cnn3ccccc23)nc(C2CCCNC2)c1 (centres unmarked) [Example 31, 3-[4-fluoro-6-(3-piperidyl)-2-pyridyl]pyrazolo[1,5-a]pyridine] |
| 11 to 100 nM | Fc1ccc(C2CCCNC2)nc1-c1cnn2ccccc12 (centres unmarked) [Example 32, 3-[3-fluoro-6-(3-piperidyl)-2-pyridyl]pyrazolo[1,5-a]pyridine] |
| 101 to 400 nM | Fc1ccc(-c2cnn3ccccc23)nc1C1CCCNC1 (centres unmarked) [Example 33, 3-[5-fluoro-6-(3-piperidyl)-2-pyridyl]pyrazolo[1,5-a]pyridine] |
| 11 to 100 nM | Clc1cc(-c2cnn3ccc(Cl)cc23)nc(C2CCCNC2)c1 (centres unmarked) [Example 34, 5-chloro-3-[4-chloro-6-(3-piperidyl)-2-pyridyl]pyrazolo[1,5-a]pyridine] |
| 11 to 100 nM | Fc1cc(-c2cnn3ccc(Cl)cc23)nc(C2CCCNC2)c1 (centres unmarked) [Example 35] |
| 11 to 100 nM | FC(F)(F)c1ccn2ncc(-c3cc(Cl)cc(C4CCCNC4)n3)c2c1 (centres unmarked) [Example 36, 3-(4-chloro-6-(piperidin-3-yl)pyridin-2-yl)-5-(trifluoromethyl)pyrazolo[1,5-a]pyridine] |
| 101 to 400 nM | c1cc(-c2cnn3ccccc23)nc(N2CCNCC2)c1 [Example 37, 3-(6-piperazin-1-yl-2-pyridyl)pyrazolo[1,5-a]pyridine] |
| 11 to 100 nM | CNc1ccn2ncc(-c3cccc(N4CCNCC4)n3)c2c1 [Example 38, N-methyl-3-(6-piperazin-1-yl-2-pyridyl)pyrazolo[1,5-a]pyridin-5-amine] |
| 11 to 100 nM | CNc1ccn2ncc(-c3cc(Cl)cc(N4CCNCC4)n3)c2c1 [Example 39, 3-(4-chloro-6-piperazin-1-yl-2-pyridyl)-N-methyl-pyrazolo[1,5-a]pyridin-5-amine] |
| 11 to 100 nM | FC(F)(F)c1ccn2ncc(-c3cccc(N4CCNCC4)n3)c2c1 [Example 40, 3-(6-piperazin-1-yl-2-pyridyl)-5-(trifluoromethyl)pyrazolo[1,5-a]pyridine] |
| 11 to 100 nM | FC(F)(F)c1ccn2ncc(-c3cc(Cl)cc(N4CCNCC4)n3)c2c1 [Example 41, 3-(4-chloro-6-piperazin-1-yl-2-pyridyl)-5-(trifluoromethyl) pyrazolo[1,5-a]pyridine] |

Reference: patent publication US20250051363A1, “Substituted Pyrazolopyridines” (Neuro3 Therapeutics, Inc., priority 2023, published 2025)
